The compounds below were run on Tylonycteris bat coronavirus HKU4. Conditions: at 100 µM.

Structure (SMILES) | inhibition [%]
CC(C)(C)NC(=O)C(c1cccnc1)N(C(=O)c1ccco1)c1ccc(C(C)(C)C)cc1 (stereo not drawn) | 11
CCC(=O)Nc1ccc(N(Cc2ccsc2)C(=O)Cn2nnc3ccccc32)cc1 | 92
CC(C)(C)NC(=O)C(c1cccnc1)N(C(=O)c1ccc(C#N)cc1)c1ccc(OCF)cc1 (stereo not drawn) | 15
O=C(NCc1ccccc1)C(c1cccc(F)c1)N(C(=O)Cn1nnc2ccccc21)C1CC2CCC1C2 (stereo not drawn) | 12
CC(C)(C)NC(=O)C(c1cccnc1)N(C(=O)C1CCCO1)c1ccc(C(C)(C)C)cc1 (stereo not drawn) | 18
CC(C)c1ccc(N(C(=O)Cc2cccnc2)C(C(=O)NC(C)(C)C)c2cccnc2)cc1 (stereo not drawn) | 41
CC(C)(C)NC(=O)C(c1ccncc1)N(C(=O)c1ccco1)c1ccc(C(C)(C)C)cc1 (stereo not drawn) | 28
CC(C)(C)NC(=O)C(c1ccsc1)N(C(=O)c1n[nH]c2ccccc12)c1ccc(F)cc1 (stereo not drawn) | 11
CCCOc1ccc(N(C(=O)c2ccco2)C(C(=O)NC(C)(C)C)c2cccnc2)cc1 (stereo not drawn) | 10
CC(C)(C)NC(=O)C(c1cccnc1)N(C(=O)Cc1ccco1)C1CC1 (stereo not drawn) | 43
CC(C)(C)NC(=O)C(c1ccsc1)N(C(=O)c1ccc(C(F)(F)F)cn1)c1ccc(OCF)cc1 (stereo not drawn) | 18
CC(C)(C)NC(=O)C(c1cccnc1)N(C(=O)c1ccc(Cl)cc1)c1ccc(C(C)(C)C)cc1 (stereo not drawn) | 27
COc1ncccc1-c1ccc(N(Cc2ccsc2)C(=O)Cn2nnc3ccccc32)cc1 | 90
CCC(=O)Nc1ccc(N(C(=O)Cn2c(C)nc3ccccc32)C(C(=O)NC(C)(C)C)c2ccsc2)cc1 (stereo not drawn) | 8
CC(C)(C)NC(=O)C(c1cccnc1)N(C(=O)c1ccc(C#N)cc1)C1CC1 (stereo not drawn) | 23
CC(C)(C)NC(=O)C(c1cccnc1)N(C(=O)CO)c1ccc(C(C)(C)C)cc1 (stereo not drawn) | 29
COc1cccc(C(=O)N(c2ccc(C(C)(C)C)cc2)C(C(=O)NC(C)(C)C)c2cccnc2)c1 (stereo not drawn) | 17
CC(C)(C)NC(=O)C(c1cccnc1)N(C(=O)c1cnccn1)c1ccc(C(C)(C)C)cc1 (stereo not drawn) | 41
CC(C)COC(=O)Nc1ccc(N(Cc2ccsc2)C(=O)Cn2nnc3ccccc32)cc1 | 75
CC(=O)Nc1ccc(N(C(=O)Cn2cnc3ccccc32)C(C(=O)NC(C)(C)C)c2ccsc2)cc1 (stereo not drawn) | 14
CC(C)(C)NC(=O)C(c1cccnc1)N(C(=O)c1cccc(O)c1)c1ccc(C(C)(C)C)cc1 (stereo not drawn) | 10

Structure (SMILES) | inhibition [%]
CC(C)(C)NC(=O)C(c1cccnc1)N(C(=O)c1cc[nH]n1)c1ccc(C(C)(C)C)cc1 (stereo in doubt; 124B) | 17
CC(C)c1ccc(N(C(=O)c2n[nH]c3ccccc23)C(C(=O)NC(C)(C)C)c2cccnc2)cc1 (stereo not drawn) | 21
CC(C)(C)NC(=O)C(c1cccnc1)N(C(=O)c1ncc[nH]1)c1ccc(C(C)(C)C)cc1 (stereo not drawn) | 22
CC(C)(C)NC(=O)C(c1cccnc1)N(C(=O)c1ncccn1)c1ccc(C(C)(C)C)cc1 (stereo not drawn) | 13
CC(C)(C)NC(=O)C(c1cccnc1)N(C(=O)c1ccc(C#N)cc1)c1ccc(C(C)(C)C)cc1 (stereo not drawn) | 11
CC(C)(C)NC(=O)C(c1cccnc1)N(C(=O)c1ccc(Cl)o1)c1ccc(C(C)(C)C)cc1 (stereo not drawn) | 12
CC(C)(C)NC(=O)C(c1cccnc1)N(C(=O)CC(F)(F)F)c1ccc(C(C)(C)C)cc1 (stereo not drawn) | 13
CC(C)(C)NC(=O)C(c1ccsc1)N(C(=O)Cc1c[nH]c2ccccc12)c1ccc(F)cc1 (stereo not drawn) | 22
CC(C)(C)NC(=O)C(c1cccnc1)N(C(=O)c1ccco1)c1ccc(-c2c(F)cccc2F)cc1 (stereo not drawn) | 23
CC(C)(C)NC(=O)C(c1cccnc1)N(C(=O)c1ccc(C(F)(F)F)cn1)c1ccc(F)cc1 (stereo not drawn) | 29
COc1cccc(Oc2ccc(N(C(=O)c3ccco3)C(C(=O)NC(C)(C)C)c3cccnc3)cc2)c1 (stereo not drawn) | 18
CC(C)(C)NC(=O)C(c1cccnc1)N(C(=O)c1ccco1)c1ccc(NS(=O)(=O)c2ccccc2)cc1 (stereo not drawn) | 16
CC(C)(C)NC(=O)C(c1ccsc1)N(C(=O)Cn1nnc2ccccc21)c1ccc(NS(C)(=O)=O)cc1 (stereo not drawn) | 27
O=C(Nc1ccc(N(Cc2ccsc2)C(=O)Cn2nnc3ccccc32)cc1)C1CC1 | 89
CC(C)(C)NC(=O)C(c1cccnc1)N(C(=O)Cc1cccc2ccccc12)c1ccc(C(C)(C)C)cc1 (stereo not drawn) | 26
CC(C)(C)NC(=O)C(c1ccsc1)N(C(=O)Cc1cccnc1)c1ccc(F)cc1 (stereo not drawn) | 24
Cc1ccc(C(=O)N(c2ccc(C(C)(C)C)cc2)C(C(=O)NC(C)(C)C)c2cccnc2)o1 (stereo not drawn) | 26
CC(C)(C)NC(=O)C(c1ccsc1)N(C(=O)Cc1cccc2ccccc12)c1ccc(OCF)cc1 (stereo not drawn) | 17
CC(C)(C)NC(=O)C(c1ccsc1)N(C(=O)c1ccc(C(F)(F)F)nc1)c1ccc(C(C)(C)C)cc1 (stereo not drawn) | 17
CC(C)(C)NC(=O)C(c1cccnc1)N(C(=O)c1ccco1)c1ccc(-c2cccn2C(=O)OC(C)(C)C)cc1 (stereo not drawn) | 17
CC(C)(C)NC(=O)C(c1cccnc1)N(C(=O)c1ccco1)c1ccc(-c2ccc(C#N)cc2)cc1 (stereo not drawn) | 14

Structure (SMILES) | inhibition [%]
CC(C)(C)NC(=O)C(c1cccnc1)N(C(=O)c1ccco1)c1ccc(-c2cncnc2)cc1 (stereo not drawn) | 14
CC(C)(C)NC(=O)C(c1cccnc1)N(C(=O)c1ccc(O)cc1)c1ccc(C(C)(C)C)cc1 (stereo not drawn) | 11
CC(C)(C)c1ccc(N(Cc2cccnc2)C(=O)c2ccoc2)cc1 | 24
CC(C)(C)NC(=O)[C@H](c1cccnc1)N(C(=O)c1ccco1)c1ccc(C(C)(C)C)cc1 | 65
CC(C)(C)NC(=O)C(c1ccsc1)N(C(=O)Cn1nnc2ccccc21)c1ccc(C(C)(C)C)cc1 (stereo not drawn) | 9
CC(C)(C)NC(=O)C(c1cccnc1)N(C(=O)c1ccc(C#N)cc1)c1ccc(F)cc1 (stereo not drawn) | 53
CC(C)c1ccc(N(C(=O)Cc2cccc3ccccc23)C(C(=O)NC(C)(C)C)c2ccsc2)cc1 (stereo not drawn) | 13
CC(C)(C)NC(=O)C(c1cn[nH]c1)N(C(=O)c1ccco1)c1ccc(C(C)(C)C)cc1 (stereo not drawn) | 12
Cc1nc2ccccc2n1CC(=O)N(c1ccc(C(C)(C)C)cc1)C(C(=O)NC(C)(C)C)c1ccsc1 (stereo not drawn) | 19
CC(C)(C)NC(=O)C(c1ccnnc1)N(C(=O)c1ccco1)c1ccc(C(C)(C)C)cc1 (stereo not drawn) | 35
CC(C)(C)NC(=O)[C@@H](c1cccnc1)N(C(=O)c1c[nH]cn1)c1ccc(C(C)(C)C)cc1 | 93
COc1ccc(C(=O)N(c2ccc(C(C)(C)C)cc2)C(C(=O)NC(C)(C)C)c2cccnc2)cc1 (stereo not drawn) | 16
CC(C)(C)NC(=O)C(c1cccnc1)N(C(=O)c1ccco1)c1ccc(NS(C)(=O)=O)cc1 (stereo not drawn) | 12
CC(C)(C)NC(=O)C(c1ccsc1)N(C(=O)c1ccc(C#N)cc1)C1CC1 (stereo not drawn) | 20
CC(C)(C)NC(=O)C(c1ccccn1)N(C(=O)c1cccnc1)c1ccc(C(C)(C)C)cc1 (stereo not drawn) | 12
CC(=O)Nc1ccc(N(C(=O)Cn2nnc3ccccc32)C(C(=O)NC(C)(C)C)c2cccc(F)c2)cc1 (stereo not drawn) | 71
CC(C)(C)NC(=O)C(c1ccsc1)N(C(=O)Cn1cnc2ccccc21)c1ccc(C(C)(C)C)cc1 (stereo not drawn) | 15
CC(C)(C)NC(=O)C(c1cccnc1)N(C(=O)c1n[nH]c2ccccc12)c1ccc(OC(F)F)cc1 (stereo not drawn) | 24
CC(C)(C)NC(=O)C(c1ccsc1)N(C(=O)c1cccc2c1CCCC2)C1CC1 (stereo not drawn) | 14
CC(C)(C)NC(=O)C(c1cccnc1)N(C(=O)c1ccco1)c1ccc(-c2ccc[nH]2)cc1 (stereo not drawn) | 31
CC(C)(C)NC(=O)C(c1cccnc1)N(C(=O)Cc1cccc2ccccc12)c1ccc(OCF)cc1 (stereo not drawn) | 21

Reference: ChEMBL document CHEMBL3603819, “Targeting zoonotic viruses: Structure-based inhibition of the 3C-like protease from bat coronavirus HKU4--The likely reservoir host to the human coronavirus that causes Middle East Respiratory Syndrome (MERS)” (Bioorg Med Chem, 2015)
